Consider eleven compounds from PMC9585577, “Oxyresveratrol and Gnetol Glucuronide Metabolites: Chemical Production, Structural Identification, Metabolism by Human and Rat Liver Fractions, and In Vitro Anti-inflammatory Properties” (Journal of Agricultural and Food Chemistry, 2022).

One data set concerns rat liver S9 fractions. Briefly: In vitro glucuronidation by rat hepatic S9 fractions. The data set is classed as in vitro ADME. Conditions: for Vmax: rat S9 0.5 mg/mL. The procedure: (§1) To study the production of glucuronide metabolites in vitro, human and rat S9 hepatic fractions were used. To ensure that the formation rates of metabolites were linear over the incubation time and at the concentration of protein, a series of preliminary experiments was performed to optimize the reactions.
(§2) Glucuronidation was studied by incubation of human or rat liver S9 fractions (0.5 mg/mL) with ORV or GN at different concentrations (0–3000 μM) in Tris–HCl buffer (50 mM, pH 7.4) in the presence of UDPGA (1 mM), alamethicin (25 μg/mL), and MgCl2 (5 mM). All samples were prepared in Eppendorf tubes in a final volume of 100 μL. After 15 min at 37 °C, 100 μL of methanol (100%) was incorporated to stop the reaction and precipitate the proteins. Finally, samples were centrifuged for 30 min at 14000g and 4 °C, and the supernatants were analyzed by UPLC–DAD–MS. Analysis were carried out using 1290 Infinity UPLC (Agilent Technologies, Courtaboeuf, France). The UPLC system was coupled to an Esquire 3000 Plus ion trap mass spectrometer using an ESI source (Bruker-Daltonics, Billerica, MA, U.S.A.). A total of 2 μL was injected into an Agilent SB-C18 column (1.8 μm, 2.1 × 100 mm). Samples were eluted with solvent A (H2O/0.1% formic acid) and solvent B (acetonitrile/0.1% formic acid) with the following gradient program: 10% B (from 0 to 1.7 min), 10–20% B (from 1.7 to 3.4 min), 20–30% B (from 3.4 to 5.1 min), 30% B (from 5.1 to 7.8 min), 30–35% B (from 7.8 to 9.5 min), 35–60% B (from 9.5 to 11.9 min), 60–100% B (from 11.9 to 15.3 min), 100% B (from 15.3 to 17 min), and 100–10% B (from 17 to 17.3 min). The flow rate was set at 0.4 mL/min, and the UV detector was set at wavelengths of 280 and 320 nm. Total ion chromatograms were obtained using negative mode with a range of m/z 130–1400. The parameters were as follows: capillary voltage, +4 kV; nebulizer pressure, 40 psi; dry gas, 10 L/min; and dry temperature, 365 °C. Data analysis was performed with Bruker Data Analysis 3.2 (Bruker-Daltonics, Billerica, MA, U.S.A.). Metabolite concentrations were quantified with the corresponding standard curve of ORV and GN glucuronides previously obtained by hemisynthesis.
(§3) The kinetic parameters, Km, Vmax, and Ki, were calculated using the GraphPad Prism software (version 6.01) (substrate inhibition as the kinetic model). The data obtained from MTT, NO, ROS, IL-1β, and TNF-α production were subjected to one-way analysis of variance (ANOVA). A comparison between LPS and the different tested concentrations of ORV, GN, and their glucuronide metabolites was performed using Dunnet’s test, and p < 0.05 was considered significant (GraphPad Prism software, version 6.01).
(§4) An important objective of this work was to study the in vitro metabolization of t-ORV and t-GN in rat and human species using S9 hepatic fractions. To this end, both stilbene monomers were incubated (37 °C, 15 min) at different concentrations (0–3000 μM) with human and rat S9 fractions (0.5 mg/mL) in the presence of UDPGA as a co-substrate of phase II enzymes. Then, samples were injected into a HPLC–DAD–MS system to identify and quantify the in vitro generated metabolites.

The test system of another data set is human liver S9 fractions. Briefly: In vitro glucuronidation by human hepatic S9 fractions. It is filed as in vitro ADME. Conditions: for Vmax: human S9 0.5 mg/mL. The procedure: as §1, §2, §3, §4
For a further data set, the system named is macrophages. Also on record: method as in PMID 24257684. The following applies: macrophages ref 37; cited from earlier work.
The test system of data set [1] is NO production in LPS-stimulated RAW 264.7 cells. As to the kind of experiment: NO measurement (Griess) in LPS-stimulated macrophages. It is filed as cell-based, murine. Conditions: for reduction of NO production: 50 μM, versus LPS alone. The method, then: (§5) RAW 264.7 cells were cultured in DMEM containing 10% FBS and maintained in a humidified incubator set at 37 °C with 5% CO2. For all following assays, cells were subcultured at a density of 40 000 cells per well in 96 well culture plates with 200 μL of the above-described culture medium. After 24 h, cells were incubated with ORV, GN, and their glucuronide metabolites (5–200 μM) in RPMI medium supplemented with glutamine (4 mM) in the presence or absence of LPS (0.1 μg/mL) (200 μL final volume per well). For MTT, NO, ROS, IL-1β, and TNF-α (n = 4), each experiment was performed in triplicate separately.
After 24 h of treatment of RAW 264.7 cells with ORV, GN, and their glucuronide metabolites, 70 μL of supernatant was mixed with 70 μL of Griess solution. After 15 min in darkness, the absorbance was measured at 550 nm using a microplate reader (FLUOstar Optima, BMG Labtech). A calibration curve of NO2 (0–100 μM) was used for quantification. Data were expressed as NO production (μM) compared to cells treated only with LPS (positive control).

Data set [2] has as its system TNF-α production in LPS-stimulated RAW 264.7 cells. As to the kind of experiment: TNF-α production (ELISA) in LPS-stimulated macrophages. The following applies: 24 h. The data set is classed as cell-based, murine. The method, then: as §5
At 24 h after seeding, RAW 264.7 cells were exposed to LPS (0.1 μg/mL) in the absence or presence of ORV, GN (10 and 50 μM), and their metabolites (50 and 200 μM). After 24 h of exposure, IL-1β and TNF-α concentrations were measured in culture media supernatants by ELISA sandwich assay following the instructions of the manufacturer.

Data set [3] has as its system ROS production in LPS-stimulated RAW 264.7 cells. As to the kind of experiment: Intracellular ROS measurement (DCFH2-DA) in LPS-stimulated macrophages. It is filed as cell-based, murine. The method, then:
as §5
Generation of intracellular ROS in cells was analyzed using the fluorometric probe DCFH2-DA. After 24 h of treatment with GN, ORV, and their glucuronide metabolites, cells were washed with phosphate-buffered saline (PBS) and then 150 μL of DCFH2-DA (10 μM) was added. After 30 min at 37 °C, the fluorescence intensity was quantified using a microplate reader (FLUOstar Optima, BMG Labtech) with a wavelength of excitation and emission of 485 and 520 nm, respectively. All experiments were performed in darkness. Results were expressed as ROS production (fluorescence intensity expressed as arbitrary units) compared to cells treated only with LPS (positive control).

The subject of the next data set is HMC3 cells. Also on record: method as in PMID 32842681. The following applies: HMC3 cells ref 8; cited from earlier work.
The test system of a further data set is macrophage cell line. Conditions: 100 μM, 18 h incubation ref 6; cited from earlier work.
For data set [4] the following is noted: in vivo, 400 umol/kg; cited from earlier work.
Data set [5] relates to RAW 264.7 cells. Briefly: MTT cell viability. The data set is classed as cell-based, murine. The following applies: 24 h, 5–200 μM tested. The procedure: as §5
The MTT colorimetric assay was performed to assess the cell viability of cells after being treated with ORV, GN, and their glucuronide metabolites. After 24 h of treatment, RAW 264.7 cells were incubated with 0.5 mg/mL MTT during 3 h at 37 °C. The formazan crystals formed were dissolved with 100 μL of dimethyl sulfoxide (DMSO), and the plate was then incubated in the darkness for 30 min. Finally, the absorbance was measured at 595 nm using a microplate reader (FLUOstar Optima, BMG Labtech).

For data set [6] the following is noted: cited from earlier work.
For data set [7], the system named is RAW 264.7 cells. Conditions: cited from earlier work.
Where [8] appears, read: formation of the glucuronide from GN.
Setting [9] is: formation of the glucuronide from ORV.
Setting [10] is: incubation of parent ORV or GN with human S9, UPLC–DAD–MS.
The mark [11] stands for this setting: between 25 and 50 μM (summary statement).

Like-named read-outs stand apart in the source and are kept apart here.

On to `O=C(O)[C@H]1O[C@@H](Oc2cccc(O)c2/C=C/c2cc(O)cc(O)c2)[C@H](O)[C@@H](O)[C@@H]1O` [t-GN-2′G, trans-gnetol-2′-O-glucuronide], for which the values for the Vmax with rat liver S9 fractions (setting [8]) and in the data set on human liver S9 fractions (setting [8]) were 6.88 ± 0.86 nmol min^–1 mg^–1 of protein and 2.48 ± 0.31 nmol min^–1 mg^–1 of protein, respectively.

Turning to `O=C(O)[C@H]1O[C@@H](Oc2cc(O)cc(/C=C/c3ccc(O)cc3)c2)[C@H](O)[C@@H](O)[C@@H]1O` [resveratrol-3-O-glucuronide], in the data set with macrophages, the cytotoxic effect entry is given as “neither resveratrol-3-O-glucuronide nor resveratrol-4′-O-glucuronide had any cytotoxic effect”.

For `O=C(O)[C@H]1O[C@@H](Oc2cc(O)cc(/C=C\c3ccc(O)cc3O)c2)[C@H](O)[C@@H](O)[C@@H]1O` (relative stereo) [c-ORV-3G, cis-oxyresveratrol-3-O-glucuronide], the values for the Vmax/Km in the data set with rat liver S9 fractions and in the data set with human liver S9 fractions were 0.073 ± 0.044 μL min^–1 mg^–1 of protein and 0.159 ± 0.066 μL min^–1 mg^–1 of protein, respectively. The values for the Vmax in the data set with rat liver S9 fractions (setting [9]) and in the data set with human liver S9 fractions (setting [9]) were 31.34 ± 5.6 nmol min^–1 mg^–1 of protein and 13.01 ± 1.04 nmol min^–1 mg^–1 of protein, respectively.

Take `O=C(O)[C@H]1O[C@@H](Oc2ccc(/C=C/c3cc(O)cc(O)c3)cc2)[C@H](O)[C@@H](O)[C@@H]1O` [resveratrol-4′-O-glucuronide]: in the data set with macrophages, the cytotoxic effect entry was “neither resveratrol-3-O-glucuronide nor resveratrol-4′-O-glucuronide had any cytotoxic effect”.

On to `O=C(O)[C@H]1O[C@@H](Oc2cc(O)ccc2/C=C/c2cc(O)cc(O)c2)[C@H](O)[C@@H](O)[C@@H]1O` [t-ORV-2′G, trans-oxyresveratrol-2′-O-glucuronide], for which the Vmax was 2.67 ± 0.32 nmol min^–1 mg^–1 of protein in the data set on rat liver S9 fractions (setting [9]) and 12.93 ± 1.47 nmol min^–1 mg^–1 of protein in the data set with human liver S9 fractions (setting [9]). The “reduction of NO production” value in [1] (24 h, LPS 0.1 μg/mL) was determined as 29%.

Consider `O=C(O)[C@H]1O[C@@H](Oc2cc(O)ccc2/C=C\c2cc(O)cc(O)c2)[C@H](O)[C@@H](O)[C@@H]1O` (relative stereo) [c-ORV-2′G, cis-oxyresveratrol-2′-O-glucuronide], for which the “metabolite formed/detected in samples” value in the data set on rat liver S9 fractions and in the data set with human liver S9 fractions was “very low” in each case.

Take `O=C(O)[C@H]1O[C@@H](Oc2cc(O)cc(/C=C/c3ccc(O)cc3O)c2)[C@H](O)[C@@H](O)[C@@H]1O` [t-ORV-3G, trans-oxyresveratrol-3-O-glucuronide]: the “reduction of TNF-α” value in data set [2] (200 μM) is recorded as 70%. The Vmax in the data set with rat liver S9 fractions (setting [8]) is 36 ± 3.57 nmol min^–1 mg^–1 of protein; in the data set on rat liver S9 fractions (setting [9]), 319.1 ± 69.77 nmol min^–1 mg^–1 of protein; in the data set on human liver S9 fractions (setting [9]), 11.41 ± 2.32 nmol min^–1 mg^–1 of protein. For the same compound, the “reduction of ROS production, at the most” value in data set [3] (ORV metabolites, 50–200 μM tested, concentration not given, 24 h, LPS) is “more than 80%”. Further, the “reduction of NO production” value in data set [1] (24 h, LPS 0.1 μg/mL) worked out at 31%.

Consider `O=C(O)C1OC(Oc2ccc(C=Cc3cc(O)cc(O)c3)c(O)c2)C(O)C(O)C1O` (stereo not shown) [ORV-4′G], for which the “metabolite formed/detected in samples” value in the data set on rat liver S9 fractions (incubation of parent ORV or GN with rat S9, UPLC–DAD–MS) is on record as “neither the trans nor the cis form of ORV-4′G was detected”; in the data set with human liver S9 fractions (setting [10]), “neither the trans nor the cis form of ORV-4′G was detected”.

Take `O=C(O)[C@H]1O[C@@H](Oc2cc(O)cc(/C=C/c3c(O)cccc3O)c2)[C@H](O)[C@@H](O)[C@@H]1O` [t-GN-3G, trans-gnetol-3-O-glucuronide]: the “metabolite formed/detected in samples” value in the data set with human liver S9 fractions (setting [10]) was “very low quantities”.

With `O=C(O)[C@H]1O[C@@H](Oc2ccc(/C=C/c3cc(O)cc(O)c3)c(O)c2)[C@H](O)[C@@H](O)[C@@H]1O` [t-ORV-4′G, trans-oxyresveratrol-4′-O-glucuronide], the “reduction of NO production” value in [1] (24 h, LPS 0.1 μg/mL) worked out at 27.2%.

With `Oc1cc(O)cc(/C=C/c2ccc(O)cc2O)c1` [t-ORV, trans-2′,3,4′,5-tetrahydroxystilbene], in the data set with HMC3 cells, the “concentration from which toxic” value is ≥ 80 µM. The “reduction of TNF-α” value in [2] (50 μM) turned out to be 30%. In addition, the cytotoxic effect result with macrophage cell line was “did not observe any cytotoxic effect”. Moreover, the “ability to metabolize ORV into glucuronides, rats versus humans (sum of Vmax/Km)” value in the data set with rat liver S9 fractions (rat, human, pH 7.4) is > 2 fold. Also, in data set [4], the total bioavailability is 9.1-15.2%. Also, the “reduction of ROS” value in data set [3] (50 μM, 24 h, LPS 0.1 μg/mL) is listed as “more than 70%”. The “decrease of ROS production” value in data set [3] (setting [11]) is given as “more than 50%”. In addition, in the data set with RAW 264.7 cells [5], the “concentration from which toxic (MTT)” value is ≥ 100 µM. Moreover, in data set [1] (24 h, LPS 0.1 μg/mL), the “reduction of NO production” value came out at 27.1% and the “concentration from which NO production significantly reduced” value was ≥ 10 µM. For the same compound, the “decrease of NO production” value in data set [1] (setting [11]) is on record as “more than 50%”. For the same compound, the “AUC0–t” value in data set [6] (rat, in vivo, po) was 5133 μg h L^–1. Also, the concentration in plasma in [6] (rats, oral administration of ORV 100 mg/kg ref 19) was ~10 µM. In addition, the “IC30 for cell cytotoxicity” value in the data set with RAW 264.7 cells [7] is listed as “higher than 50 μM”.
